Reference: patent US20250345426A1, “METHODS FOR MAKING AND USING THERAPEUTIC CELLS” (THE REGENTS OF THE UNIVERSITY OF CALIFORNIA, priority 2022, published 2025)
Entries after “also recorded” stand apart in the source; their conditions may differ.

What was measured:
Leu16 CAR-T cells [1] = assay: T-cell subtype distribution and Tn/scm enrichment, Leu16 CAR-T cells; format: cell-based, human; settings: 6 days of pharmacological modulation, relative to vehicle
Source text: (§1) FIG. 3A-G. Pharmacological modulation of Leu16 CAR-T cells modestly dampens tonic signaling while enhancing anti-tumor efficacy. (A) Pictorial representation of the correlation between tonic signaling-modulated rituximab CAR-T cells and in vivo anti-tumor efficacy. (B) Pictorial representation of pharmacological modulation strategy aimed to either increase or decrease Leu16 CAR tonic signaling; c-MYC (MYCi975) and SREBP (betulin) inhibition increased tonic signaling whereas mTORC1 (rapamycin) inhibition decreased tonic signaling in rituximab CAR-T cells. (C) % distribution of T-cell subtypes in CAR^+ T cells after 6 days of pharmacological modulation (left) and Tn/scm enrichment (right). […] (F) Tumor signal (in photons/sec/cm2/sr) in individual animals as quantified by bioluminescence imaging. […]
(§2) Antibody staining for flow-cytometry analysis. EGFRt expression was measured with biotinylated cetuximab (Eli Lilly; biotinylated in-house), followed by PE-conjugated streptavidin (Jackson ImmunoResearch #016-110-084). CAR expression was quantified by surface epitope staining using anti-Fc (Alexa Fluor 488, Jackson ImmunoResearch #709-546-098). […] T-cell subtype of CAR-T cells was evaluated by antibody staining for CD45RO (VioBlue®, clone REA611, Miltenyi #130-119-620) and CD62L (APC, clone DREG56, Invitrogen #17-0629-42) after 5-6 days of inhibitor culture (FIG. 1, FIG. 3). […]

Leu16 CAR-T cells [2] = assay: Antigen-independent activation and exhaustion marker expression by flow cytometry, Leu16 CAR-T cells; format: cell-based, human; settings: equivalent concentrations as for rituximab CAR-T cells
Source text: as §1, §2

Compound | enrichment of Tn/scm cells (Leu16 CAR-T cells [1]) | tonic signaling (Leu16 CAR-T cells [2])
C=C(C)[C@@H]1CC[C@]2(CO)CC[C@]3(C)[C@H](CC[C@@H]4[C@@]5(C)CC[C@H](O)C(C)(C)[C@@H]5CC[C@]43C)[C@@H]12 [betulin, Betulin] | increased enrichment | dampened; also recorded: significant decrease
MYCi975 | increased enrichment | dampened
